How the values were obtained:
α1 glycine receptor = α1 glycine receptor (Homo sapiens (Human), UniProt P23415); assay: Expression and electrophysiological characterization of glycine receptor activity (patch/voltage clamp); assay type: cell-based; conditions: modulation of agonist induced currents at glycine EC20; means ± s.d.
Description: Human embryonic kidney (HEK) 293 cells (ATCC CRL 1573) and/or Xenopus laevis oocytes were used for expressing the human a1-3 glycine receptor subunit as well as human a1, b3, g2 GABA receptor subunit cDNAs inserted into mammalian expression vectors. Patch- and voltage-clamp recording from receptor expressing cells was performed at a holding potential of −70 mV in normal Ringer solution and digitized for analyses. Dose-response curves of agonist induced peak currents (I) were normalized to the maximal current value obtained and fitted with the sigmoidal Hill equation using a Gauss Marquardt iteration, where EC50 represents the glycine/GABA concentration resulting in a half maximal response. Effects of the compounds tested on agonist induced currents were analysed after superfusing the cells with the respective compound for 5 seconds prior to and during agonist application and dose-response curves of modulated currents were determined in the presence of agonist concentrations eliciting a response corresponding to 20% of the maximal inducible current (EC20 value). Results represent means±s.d. and the significance of the data was evaluated using Student's paired t test and considered to be statistically significant at P<0.05.

[1] = Pharmacokinetic evaluation, oral dosing in rats; assay type: in vivo, rat; conditions: 10 mg/kg oral, SSV, non-fasted rats
Description: • Dose—10 mg/kg (5 mL/kg) • Route—ORAL • Vehicles—10% DMSO/10% Solutol and SSV • Time—24 h • Procedure Number—6 Vehicles • 10% DMSO/10% Solutol/80% Saline • 1) Compound was weighed out into a clean vial. • 2) DMSO was added into the vial; the vial was vortexed and sonicated it for 15 min. • 3) Solutol HS 15 was heated at 50° C. until a liquid formed, and then was added into the vial. The vial was vortexed for 1-2 min. • 4) 0.9% Saline solution was added to the vial. The vial was vortexed and then sonicated for 10 min. Standard Suspension Vehicle (SSV) • 1) A solution of SSV was made using 0.5% Sodium carboxymethylcellulose, 0.5% Benzyl alcohol, 0.4% Tween80 and 98.6% saline (0.9%) • 2) Compound was weighed out into a clean vial • 3) SSV solution was added into the vial; the vial was vortexed and sonicated it for 15 min. Fasted Rats
Fasted rats were fasted overnight and given access to food immediately after dosing.
• 1) Rats were manually restrained and given a 10 mg/kg oral dose of compound at 5 mL/kg. • 2) At designated time points (0.25, 0.5, 1, 3, 5, 7 and 24 hours) the rats were anaesthetised using isoflurane. • 3) Approximately 300 μL of blood was taken from the tail vein using a 1.5 inch needle treated with heparin and collected into 1.5 mL eppendorf tubes. • 4) After sampling, pressure was applied to the puncture until bleeding ceased. The animals were returned to their cages and given free access to food and water. • 5) Blood samples were stored on ice and then centrifuged at 13,000 rpm for 15 min to separate the plasma. • 6) 150 μL of the plasma was treated with 300 μL of ACN:MeOH (1:1) solution containing the internal standard. The samples were then centrifuged for a further 15 min at 13,000 rpm. • 7) 200 μL of the supernatant was collected and placed in LC-MS vials for analysis. All samples were stored at −80° C. Results

neuropathic rats [2] = assay: Comparison of LT-01-25 and LT-01-89: ipsilateral paw withdrawal thresholds to mechanical pressure in neuropathic rats; assay type: in vivo, rat; conditions: 30 mg/kg p.o., male SD rats
Description: Male, SD rats. n=6/group. Vehicle: 10% DMSO/10% Solutol HS15/80% saline.
• 1) In rats a peripheral neuropathy was induced by partial ligation of the sciatic nerve in one hind limb. • 2) Two weeks (12-15 days) after induction of peripheral neuropathy stable mechanical (tactile) allodynia was induced in the hind paw of the affected limb. • 3) Five treatment groups of male SD rats (n=8) were used: vehicle control (drug formulation), 3 drug doses, and a positive control, lamotrigine (30 mg/kg). Animals were randomized between groups and the experiment was carried out using blinded conditions. The study was split with n=4/group in each experiment. • 4) Baseline behavioural measurements were obtained prior to surgery and at intervals post-surgery. Predose behavioural measurements were obtained by measuring paw withdrawal thresholds 12-15 days following nerve ligation. • 5) Compound efficacy was determined by measuring paw withdrawal thresholds at specified intervals following vehicle/compound treatment. Methods Animals
Animals were maintained in a controlled lighting environment and given food and water ad libitum. Male Sprague Dawley rats (120-140 g at time of surgery) were used.
Rats were fasted overnight with free access to water and fed 4 hours post-dose.
Tests compounds as well as Lamotrigine (30 mg/kg, volume: 10 ml/kg)) were prepared in the designated formulation (10% DMSO, Solutol HS 15/80% and 0.9% saline for p.o. administration) and administered via the chosen route.
Rats were anaesthetised (isoflurane/O2 inhalation), the left sciatic nerve was exposed at mid-thigh level through a small incision and ⅓ to ½ of the nerve thickness tightly ligated within a 7.0 silk suture. The wound was closed with skin clips. Animals were allowed to recover and compounds administered 12-15 days following surgery.
Compound/vehicle were administered at specified doses. Following treatment, further readings were taken; 1, 3, 6 and 24 hour after p.o. administration.

neuropathic rats [3] = assay: Comparison of LT-01-25 and LT-01-89: ipsilateral withdrawal latencies to cold (10° C.) stimulus in neuropathic rats; assay type: in vivo, rat; conditions: 30 mg/kg p.o., male SD rats
[4] = Cerebrospinal fluid (CSF) levels after oral dosing; assay type: in vivo; conditions: p.o. dose 3 mg/kg, after 2 hr, fasted male SD rat
Rat microsomal stability = assay type: in vitro ADME; conditions: Rat microsomes, 1 μM
Source text: Rat and human microsomal stability data was obtained using well established protocols known to those skilled in the art.

[5] = Human microsomal stability; assay type: in vitro ADME; conditions: human microsomes, 1 μM
Description: The metabolic stability assay was performed by incubating each test compound (1 μM) with human liver microsomes in duplicate at 37° C. and 0.4 mg/mL protein concentration. The metabolic reaction was initiated by the addition of a NADPH-regenerating system (i.e. NADPH is the cofactor required for CYP450-mediated metabolism) and quenched at various time points over the 60 minute incubation period by the addition of acetonitrile. Control samples (containing no NADPH) were included (and quenched at 2, 30 and 60 minutes) to monitor for potential degradation in the absence of cofactor. Samples were analysed by UPLC-MS (Waters/Micromass Xevo G2 QTOF) under positive electrospray ionisation and MS spectral data acquired in a mass range of 80 to 1200 Daltons.
Test compound concentration versus time data were fitted to an exponential decay function to determine the first-order rate constant for substrate depletion. In cases where clear deviation from first-order kinetics was evident, only the initial linear portion of the profile was utilised to determine the degradation rate constant (k). Each substrate depletion rate constant was then used to calculate: [1] a degradation half-life, [2] an in vitro intrinsic clearance value (CLint, in vitro); [3] a predicted in vivo hepatic intrinsic clearance value (CLint); [4] a predicted in vivo blood clearance value (CLblood); and [5] a predicted in vivo hepatic extraction ratio (EH).
• 1) The substrate concentration employed is well below the apparent KM for substrate turnover; and, • 2) There is no significant product inhibition, nor is there any mechanism-based inactivation of enzyme. The use of hepatic microsomes in the prediction of the in vivo hepatic extraction ratio has two further inherent assumptions (Obach, 1999) which: • 1) NADPH-dependent oxidative metabolism predominates over other metabolic routes (i.e. direct conjugative metabolism, reduction, hydrolysis, etc.); and, • 2) Rates of metabolism and enzyme activities in vitro are truly reflective of those that exist in vivo. Data should be considered within these terms of reference.

α1 glycine receptor, sequence (P23415 29-457 limits assumed): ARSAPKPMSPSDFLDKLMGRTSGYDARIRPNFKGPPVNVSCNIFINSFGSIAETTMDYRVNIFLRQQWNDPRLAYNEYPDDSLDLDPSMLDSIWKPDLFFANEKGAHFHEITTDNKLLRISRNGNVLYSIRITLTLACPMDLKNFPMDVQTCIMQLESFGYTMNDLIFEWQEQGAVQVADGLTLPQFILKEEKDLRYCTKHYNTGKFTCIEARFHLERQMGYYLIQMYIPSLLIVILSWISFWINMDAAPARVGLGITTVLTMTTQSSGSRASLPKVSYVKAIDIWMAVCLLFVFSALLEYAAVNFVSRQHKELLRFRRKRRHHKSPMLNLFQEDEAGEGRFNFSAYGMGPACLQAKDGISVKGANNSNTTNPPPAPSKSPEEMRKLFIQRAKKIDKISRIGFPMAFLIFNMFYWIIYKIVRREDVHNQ

## CC(C)c1cc(C(=O)N2CCN(C)CC2)cc(C(C)C)c1O [Example 6, (4-Hydroxy-3-5-diisopropylphenyl)(4-methylpiperazin-1-yl)methanone]
α1 glycine receptor
  EC50: 1.2 pM

## CC(C)c1cc(C(=O)N2CC(F)C2)cc(C(C)C)c1O [Example 3, (3-Fluoroazetidin-1-yl)(4-hydroxy-3,5-diisopropylphenyl) methanone]
α1 glycine receptor
  EC50: 430 pM

## CC(C)(C)c1cc(C(=O)N2CCOCC2)cc(C(C)(C)C)c1O [LT-01-89, (4-(hydroxy)-3,5-di-tertbutyl)(morpholino)methanone, reference compound]
[1]
  AUC∞ (area): 5931.7 ng·h/mL
  CL (area)/kg: 17.947 mL/min/kg
  Cmax: 471.2 ng/mL
  Half Life: 20.4 h
  Tmax: 1.2 h
  Vd (area)/kg: 32.7299 L/kg
Neuropathic rats [2]; 1 hr
  Mechanical pressure Percentage reversal of predose hyperalgesia: 1 hr - - - 70%
Neuropathic rats [2]; 3 hr
  Mechanical pressure Percentage reversal of predose hyperalgesia: 3 hr - - - 50%
Neuropathic rats [2]; 6 hr
  Mechanical pressure Percentage reversal of predose hyperalgesia: 6 hr - - - 20%
Neuropathic rats [3]; 1 hr
  Cold (10° C.) Stimulus Percentage reversal of predose Hyperalgesia: 1 hr - - - 70%
Neuropathic rats [3]; 3 hr
  Cold (10° C.) Stimulus Percentage reversal of predose Hyperalgesia: 3 hr - - - 65%
Neuropathic rats [3]; 6 hr
  Cold (10° C.) Stimulus Percentage reversal of predose Hyperalgesia: 6 hr - - - 10%
[4]
  CSF levels: 27 ng/mL
  CSF levels as multiple of EC50: (180 × EC50)
Rat microsomal stability
  Cl: 20.38 mL/min/kg
  t1/2: 2.02 h
Rat microsomal stability; second set marked *
  Cl (values marked *): 5.26 mL/min/kg (Cl)*
  t1/2 (values marked *): 165 min (t1/2)*
[5]
  Cl (values marked *): 6.2 mL/min/kg (Cl) *
  t1/2 (values marked *): 138.6 min (t1/2) *
